Source: US20140243415A1, “COMPOUNDS INHIBITING GALECTIN-1 EXPRESSION, CANCER CELL PROLIFERATION, INVASION, AND TUMORIGENESIS” (ONCOETHIX SA, priority 2011, published 2014)

Legend:
cultured fibroblasts = experiment: Antiproliferative effect in fibroblasts; assay type: cell-based
galectin-1 = target: T1, galectin-1 (Homo sapiens, UniProt P09382); experiment: Western blot of galectin-1 in SQ20B cells; assay type: cell-based; settings: 3 μM OTX-008, 48 and 72 h exposure
T1 construct: Western Blot of galectin-1 on SQ20B cells treated with 3 μM OTX-008 for 24 h, 48 h and 72 h; endogenous in cells; host or cells: SQ20B (ATCC)
T1 sequence (P09382 whole entry): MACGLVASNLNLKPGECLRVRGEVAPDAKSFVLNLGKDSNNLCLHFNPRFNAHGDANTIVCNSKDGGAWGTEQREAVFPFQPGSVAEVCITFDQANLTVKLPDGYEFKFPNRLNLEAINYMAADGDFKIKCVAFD
Procedure: (§1) FIG. 3. Effects of OTX-008 on galectin-1 expression and localization. A—Western Blot of galectin-1 on SQ20B cells treated with 3 μM OTX-008 for 24 h, 48 h and 72 h. B and C—Immunofluorescence of galectin-1 on SQ20B cells treated with 3 μM OTX-008 for 24 and 48 h. B—OTX-008 treatment decreases galectin-1 immunostaining in SQ20B cells. C—Galectin-1 translocates into the nucleus after OTX-008 exposure. D—Western Blot of p-AKTser473, AKT, p-S6, p-ERK1/2, ERK and p-PKCα in SQ20B cells treated with 3 μM OTX-008 for 10 min, 1 h, 2 h, 5 h and 24 h.
FIG. 4. OTX-008-induced galectin-1 oxydation and degradation by the proteosome system A—Western Blot of galectin-1 on SQ20B cells treated 48 h with 10 μM N-acetylcysteine (NAC), 55 μM β-mercaptoethanol (βME), 1 mM Tempol and 10 μM co-enzyme Q10 (Q10) with or without 3 μM OTX-008. B—Western Blot of galectin-1 on SQ20B cells treated 48 h with 3 μM OTX-008, pretreated 2 h with proteasome inhibitor Bortezomib (10 nM) and then treated 48 h with 3 μM OTX-008 (BTZ—OTX-008) or treated 48 h with 10 nM Bortezomib+3 μM OTX-008 (BTZ+OTX-008).
Cells were lysed in buffer containing 50 mM HEPES (pH 7.6), 150 mM NaCl, 1% Triton X-100, 2 mM sodium vanadate, 100 mM NaF, and 0.4 mg/ml phenylmethylsulfonyl fluoride. Equal amounts of protein (30 μg/lane) were subjected to SDS-PAGE and transferred to nitrocellulose membranes. […]

p-AKT = experiment: Western blot of signaling in SQ20B cells; assay type: cell-based, human; settings: 3 μM OTX-008, 10 min to 24 h
Procedure: as §1
(§2) Cells were lysed in buffer containing 50 mM HEPES (pH 7.6), 150 mM NaCl, 1% Triton X-100, 2 mM sodium vanadate, 100 mM NaF, and 0.4 mg/ml phenylmethylsulfonyl fluoride. Equal amounts of protein (30 μg/lane) were subjected to SDS-PAGE and transferred to nitrocellulose membranes. Membranes were blocked with 5% milk in 0.05% Tween 20/phosphate-buffered saline and then incubated with the primary antibody overnight. Membranes were then washed and incubated with the secondary antibody conjugated to horseradish peroxidase. Bands were visualized by using the enhanced chemiluminescence Western blotting detection system. Densitometric analysis was performed under conditions that yielded a linear response. The following antibodies were used: anti-p-cdc2 (tyr15), anti-p-wee1 (ser642), anti-p-p44/42 MAPK (thr202/tyr204), anti-p44/42, anti-p-AKT (ser473), anti-AKT, anti-p-S6 (ser235/236) (Cell Signaling, Saint Quentin Yvelines, France), anti-p-PKCα (ser657) (BD Biosciences, Le-Pont-de-Claix, France) and anti-galectin-1 (Abcam, Cambridge, Mass., USA). All antibodies were used at a 1:1000 dilution.
(§3) Intracytoplasmic galectin-1 was previously shown to stabilize intracellular GTP-Ras conformation, facilitating Ras downstream signaling. Signaling events following OTX-008 exposure in SQ20B cells displaying no EGFR, K-Ras, and B-Raf mutation were investigated (FIG. 5A).

p-ERK1/2 = experiment: Western blot of signaling in SQ20B cells; assay type: cell-based, human; settings: 3 μM OTX-008, 10 min to 24 h
Procedure: as §1, §2, §3

p-S6 = experiment: Western blot of signaling in SQ20B cells; assay type: cell-based, human; settings: 3 μM OTX-008, 10 min to 24 h
Procedure: as §1, §2, §3

γH2AX = γH2AX expression; assay type: cell-based, human
chk1, chk2, and cdc25C = experiment: chk1, chk2 and cdc25C phosphorylation in SQ20B; assay type: cell-based, human; settings: OTX-008-treated SQ20B cells
[1] = system: A2780-1A9 ovarian xenografts; experiment: A2780-1A9 xenograft model; assay type: in vivo
Procedure: FIG. 6. […] A—The antitumor effects of OTX-008 on A2780-1A9 xenograft were compared to that of active doses of cisplatin and paclitaxel—solid line represents days of treatment. B—Immunohistochemistry of galectin-1, Ki67 (MIB-1) and CD31 on A2780-1A9 xenograft. C—Tumor growth and secondary tumor formation of SQ20B xenografts untreated and treated with 10 mg/kg/day OTX-008 and SQ-shGAL1 xenografts. Tumor volume was determined as 3.14(width2)/length—solid line represents days of treatment. D—Immunohistochemistry of galectin-1, MIB1, VEGFR2 and CD31 on SQ20B xenografts
The immunohistochemical procedure was performed on OCT-embedded subcutaneous tumor stained with H&E, MIB1 ( 1/400, Dako, Glostrup, Denmark), CD31 ( 1/200, Dako), VEGFR2 ( 1/125, Cell Signaling, Saint Quentin Yvelines, France) or galectin-1 (1:20, Abcam, Cambridge, Mass., USA) using an automated immunohistochemical stainer according to the manufacturer's guidelines (streptavidin-peroxidase protocol; Benchmark, Ventana, Tuscon, Ariz., USA). The images were captured and analyzed with a Zeiss observer Z1 microscope. Images quantification was performed using Histolab Software (Microvision, France) subtracting the background. Magnification ×20 and ×40.
A volume containing 8.10^6 A2780-1A9 cancer cells was injected s.c. into the right lateral flank of female nu/nu athymic mice. When tumors become palpable, mice were randomized and treated i.p. with PBS (3 days per week), 5 mg/kg OTX-008 (3 days per week), 6 mg/kg cisplatin (days 1, 8 and 15) or 10 mg/kg taxotere (days 1, 8 and 15). Tumor size was measured three times per week with caliper and tumor volume was calculated as (length×width^2)/2. At the end of the study, animals were sacrificed and tumors collected and frozen in OCT for molecular biology and immunohistochemical analysis. Mouse experiments were approved by the Animal Housing and Experiment Board of the French government.

endothelial cell = endothelial cell proliferation, migration, chick embryo chorioallantoic membrane assays; cited from earlier work

CN(C)CCNC(=O)COc1c2cccc1Cc1cccc(c1OCC(=O)NCCN(C)C)Cc1cccc(c1OCC(=O)NCCN(C)C)Cc1cccc(c1OCC(=O)NCCN(C)C)C2 [OTX-008]
antiproliferative effect (cultured fibroblasts): no antiproliferative effect | galectin-1 protein expression (galectin-1): decreased galectin-1 protein expression | AKT ser473 phosphorylation (p-AKT): transient activation of AKT^s473 followed by a complete and sustained inhibition of p-AKT | p-ERK1/2 activity (p-ERK1/2): progressively but sustainably inhibited p-ERK1/2 activity | p-S6 (p-S6): complete and sustained inhibition | γH2AX expression (γH2AX): no direct effects | chk1, chk2, and cdc25C phosphorylation levels (chk1, chk2, and cdc25C): Mild to no changes | tumor growth ([1]; 5 mg/kg OTX-008 i.p., 3 days per week): Tumor growth inhibition | antitumor effects relative to cisplatin and docetaxel ([1]; 5 mg/kg OTX-008 vs 6 mg/kg cisplatin, 10 mg/kg taxotere): comparable to that of cisplatin and docetaxel | VEGFR-2 expression ([1]; A2780-1A9 tumors): decreased expression of VEGFR-2 | number of micro-vessels in tumors ([1]; A2780-1A9 tumors): decreased number of micro-vessel | proliferation as measured by Ki67 expression ([1]; A2780-1A9 tumors): significantly reduced | toxicity at active doses ([1]; nude mice): no toxicity | vessels lumen surface area ([1]; vs control): significant decrease of the surface of vessels | galectin-1 expression in tumors (immunohistochemistry) ([1]; vs non treated tumors): significant lower galectin-1 expression | angiogenesis inhibition in vitro (endothelial cell): potent angiogenesis inhibitor
